This passage reports GI50 and IC (TGI) results from patent US20160095843A1, “PYRAZOLOPYRROLIDINE DERIVATIVES AND THEIR USE IN THE TREATMENT OF DISEASE” (NOVARTIS AG, priority 2013, published 2016).

Experiment [1] deals with MV-4-11 cells. Nature of the experiment: Cell growth inhibition assay (CellTiter-Glo), MV-4-11. To be noted: Homo sapiens, MV4-11. The class given is cell-based. Put shortly:
(§1)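 Leukemia lines grown in their own media were exposed for 4 days at 37° C. to 3-fold serial dilutions from 10 μM (0.1% DMSO). Viability by CellTiter-Glo ATP luminescence, corrected for background and day-0 plate; IC50 and TGI from four-parameter fit against vehicle (100%) and medium (−100%).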
(Cellular ATP, detected with luciferase, serves as a proxy for viable cell number.)

The subject of experiment [2] is THP-1 cells. Briefly: Cell growth inhibition assay (CellTiter-Glo), THP-1. To be noted: Homo sapiens. The experiment is classed as cell-based. The method, boiled down:
as §1

Experiment [3] relates to K-562 cells. Briefly: Cell growth inhibition assay (CellTiter-Glo), K-562. The experiment is classed as cell-based, human. To be noted: for GI50: Homo sapiens, K562. Put shortly: as §1

Some results are limits rather than exact numbers.

Turning to `Cc1nn(C2CC2)c2c1C(c1ccc(Cl)cc1)N(c1cc(N(C)C(=O)OC(C)(C)C)c3nnc(C)n3n1)C2=O` (centres unmarked) [Example 112, tert-butyl (6-(4-(4-chlorophenyl)-1-cyclopropyl-3-methyl-6-oxopyrrolo[3,4-c]pyrazol-5(1H,4H,6H)-yl)-3-methyl-[1,2,4]triazolo[4,3-b]pyridazin-8-yl)(methyl)carbamate], the GI50 was 758 nM in experiment [1], 1280 nM in experiment [2] and 2810 nM in experiment [3].
As to `CCOC(=O)N1CC(n2nc(C)c3c2C(=O)N(c2cc(C)c4nnc(C)n4c2)C3c2ccc(Cl)cc2)C1` (centres unmarked) [Example 156, Ethyl 3-(4-(4-chlorophenyl)-5-(3,8-dimethyl-[1,2,4]triazolo[4,3-a]pyridin-6-yl)-3-methyl-6-oxo-5,6-dihydropyrrolo[3,4-c]pyrazol-1(4H)-yl)azetidine-1-carboxylate], the results for the GI50 in experiment [1], in experiment [2] and in experiment [3] were 35.6 nM, 69.6 nM and 374 nM, respectively.
The matching figures for `Cc1nn(C(C)C)c2c1[C@H](c1ccc(Cl)cc1)N(c1cc(C)c(=O)n(C)c1)C2=O` [Example 103, (S)-4-(4-chlorophenyl)-5-(1,5-dimethyl-6-oxo-1,6-dihydropyridin-3-yl)-1-isopropyl-3-methyl-4,5-dihydropyrrolo-[3,4-c]pyrazol-6(1H)-one]: 3590 nM, 7290 nM and above 10000 nM.
The matching figures for `Cc1cc(N2C(=O)c3nn(C(=O)N(C)C)c(C)c3[C@H]2c2ccc(Cl)cc2)cn2c(C)nnc12` [Example 150, (R)-4-(4-chlorophenyl)-5-(3,8-dimethyl-[1,2,4]triazolo[4,3-a]pyridin-6-yl)-N,N,3-trimethyl-6-oxo-5,6-dihydropyrrolo-[3,4-c]pyrazole-2(4H)-carboxamide]: 55.5 nM, 101 nM and 406 nM.
The matching figures for `Cc1nn(-c2cncn2C)c2c1C(c1ccc(Cl)cc1)N(c1cc(C)c(=O)n(C)c1)C2=O` (centres unmarked) [Example 83, 4-(4-chlorophenyl)-5-(1,5-dimethyl-6-oxo-1,6-dihydropyridin-3-yl)-3-methyl-1-(1-methyl-1H-imidazol-5-yl)-4,5-dihydropyrrolo[3,4-c]pyrazol-6(1H)-one]: 100 nM, 164 nM and 719 nM.
As to `CCc1nn(C2CC2)c2c1[C@@H](c1ccc(Cl)cc1)N(c1cc(C)c3nnc(C)n3c1)C2=O` [Example 107, (R)-4-(4-chlorophenyl)-1-cyclopropyl-5-(3,8-dimethyl-[1,2,4]triazolo[4,3-a]pyridin-6-yl)-3-ethyl-4,5-dihydropyrrolo-[3,4-c]pyrazol-6(1H)-one], the GI50 is 7.28 nM in experiment [1], 8.18 nM in experiment [2] and 37.9 nM in experiment [3]. In experiment [3], this compound showed an IC (TGI) above 10000 nM.
Regarding `Cc1nn(C(C)C)c2c1C(c1ccc(Cl)cc1F)N(c1cc(C)c(=O)n(C)c1)C2=O` (centres unmarked) [Example 180, 4-(4-chloro-2-fluorophenyl)-5-(1,5-dimethyl-6-oxo-1,6-dihydropyridin-3-yl)-1-isopropyl-3-methyl-4,5-dihydropyrrolo[3,4-c]pyrazol-6(1H)-one], the GI50 was 68 nM in experiment [1], 81.4 nM in experiment [2] and 266 nM in experiment [3].
Take `COc1ncc(-n2nc3c(c2C(C)C)[C@@H](c2ccc(Cl)cc2)N(c2cc(C)c4onc(C)c4c2)C3=O)c(OC)n1` [Example 62, (R)-4-(4-chlorophenyl)-2-(2,4-dimethoxypyrimidin-5-yl)-5-(3,7-dimethylbenzo[d]-isoxazol-5-yl)-3-isopropyl-4,5-dihydropyrrolo[3,4-c]pyrazol-6(2H)-one]: the figures for the 50% growth inhibitory concentration (GI50) in experiment [1], in experiment [2] and in experiment [3] were 58.4 nM, 97.7 nM and 316 nM, respectively. In experiment [3], this compound returned an IC (TGI) above 10000 nM.
With `COc1ncc(-n2nc(C)c3c2C(=O)N(c2cc(Cl)c(=O)n(C)c2)C3c2ccc(Cl)cc2)c(OC)n1` (centres unmarked) [Example 53, 5-(5-chloro-1-methyl-6-oxo-1,6-dihydropyridin-3-yl)-4-(4-chlorophenyl)-1-(2,4-dimethoxypyrimidin-5-yl)-3-methyl-4,5-dihydropyrrolo[3,4-c]pyrazol-6(1H)-one], the concentration for 50% growth inhibition (GI50) is 249 nM in experiment [1], 374 nM in experiment [2] and 953 nM in experiment [3].
On to `Cc1nn(-c2ccnn2C)c2c1C(c1ccc(Cl)cc1)N(c1cc(C)c3nnc(C)n3c1)C2=O` (centres unmarked) [Example 90, 4-(4-chlorophenyl)-5-(3,8-dimethyl-[1,2,4]triazolo[4,3-a]pyridin-6-yl)-3-methyl-1-(1-methyl-1H-pyrazol-5-yl)-4,5-dihydropyrrolo[3,4-c]pyrazol-6(1H)-one], for which the GI50 was found to be 25.5 nM in experiment [1], 51 nM in experiment [2] and 276 nM in experiment [3].
Take `COc1ncccc1-n1nc(C)c2c1C(=O)N(c1cc(C)c3nnc(C)n3c1)C2c1ccc(Cl)cc1` (centres unmarked) [Example 101, 4-(4-chlorophenyl)-5-(3,8-dimethyl-[1,2,4]triazolo[4,3-a]pyridin-6-yl)-1-(2-methoxypyridin-3-yl)-3-methyl-4,5-dihydropyrrolo[3,4-c]pyrazol-6(1H)-one]: the values for the GI50 in experiment [1], in experiment [2] and in experiment [3] were 25.7 nM, 53 nM and 261 nM, respectively.
The corresponding values for `COc1c2c(nn1C)C(=O)N(c1cc(C)c(=O)n(C)c1)C2c1ccc(Cl)cc1` (centres unmarked) [Example 77, 4-(4-chlorophenyl)-5-(1,5-dimethyl-6-oxo-1,6-dihydropyridin-3-yl)-3-methoxy-2-methyl-4,5-dihydropyrrolo-[3,4-c]pyrazol-6(2H)-one] are 88.8 nM, 178 nM and 569 nM.
Regarding `Cc1nn(C(C)C)c2c1C(c1ccc(Cl)cc1F)N(c1cc(C)c3nnc(C)n3c1)C2=O` (centres unmarked) [Example 168, 4-(4-chloro-2-fluorophenyl)-5-(3,8-dimethyl-[1,2,4]triazolo[4,3-a]pyridin-6-yl)-1-isopropyl-3-methyl-4,5-dihydropyrrolo[3,4-c]pyrazol-6(1H)-one], the GI50 in experiment [1] is 24.1 nM; in experiment [2] it was 35.5 nM; in experiment [3], 105 nM.
In the case of `CNc1cc(N2C(=O)c3c(c(C)nn3C3CC3)[C@H]2c2ccc(Cl)cc2)nn2c(C)nnc12` [Example 161, (R)-4-(4-chlorophenyl)-1-cyclopropyl-3-methyl-5-(3-methyl-8-(methylamino)-[1,2,4]triazolo[4,3-b]pyridazin-6-yl)-4,5-dihydropyrrolo-[3,4-c]pyrazol-6(1H)-one], the GI50 in experiment [1] was 66.1 nM; in experiment [2], 78.5 nM; in experiment [3], 352 nM.
The corresponding values for `Cc1[nH]nc2c1C(c1ccc(Cl)cc1F)N(c1cc(C)c(=O)n(C)c1)C2=O` (centres unmarked) [Example 196, 4-(4-chloro-2-fluorophenyl)-5-(1,5-dimethyl-6-oxo-1,6-dihydropyridin-3-yl)-3-methyl-4,5-dihydropyrrolo-[3,4-c]pyrazol-6(2H)-one] are 144 nM, 204 nM and 921 nM.
`Cc1nn(C2CC2)c2c1C(c1ccc(Cl)cc1)N(c1ccc3nnn(C)c3n1)C2=O` (centres unmarked) [Example 102, 4-(4-chlorophenyl)-1-cyclopropyl-3-methyl-5-(3-methyl-3H-[1,2,3]triazolo[4,5-b]-pyridin-5-yl)-4,5-dihydropyrrolo-[3,4-c]pyrazol-6(1H)-one]: the values for the GI50 in experiment [1], in experiment [2] and in experiment [3] were 87.5 nM, 140 nM and 653 nM, respectively.
Take `COc1ncc(-n2nc3c(c2C(C)C)C(c2ccc(Cl)cc2)N(c2cc(C)c4nnc(C)n4c2)C3=O)c(OC)n1` (centres unmarked) [Example 67, 4-(4-chlorophenyl)-2-(2,4-dimethoxypyrimidin-5-yl)-5-(3,8-dimethyl-[1,2,4]triazolo-[4,3-a]pyridin-6-yl)-3-isopropyl-4,5-dihydropyrrolo-[3,4-c]pyrazol-6(2H)-one]: the concentration for 50% growth inhibition (GI50) was found to be 8.55 nM in experiment [1], 20.3 nM in experiment [2] and 47.4 nM in experiment [3].
`Cc1nn(C2CNC2)c2c1C(c1ccc(Cl)cc1)N(c1cc(C)c(=O)n(C)c1)C2=O` (centres unmarked) [Example 138, 1-(azetidin-3-yl)-4-(4-chlorophenyl)-5-(1,5-dimethyl-6-oxo-1,6-dihydropyridin-3-yl)-3-methyl-4,5-dihydropyrrolo[3,4-c]pyrazol-6(1H)-one]: the results for the GI50 in experiment [1], in experiment [2] and in experiment [3] were 251 nM, 904 nM and 2060 nM, respectively.
The matching figures for `CCc1nn(-c2cnc(OC)nc2OC)c2c1C(c1ccc(Cl)cc1)N(c1cc(C)c(=O)n(C)c1)C2=O` (centres unmarked) [Example 60, 4-(4-chlorophenyl)-1-(2,4-dimethoxypyrimidin-5-yl)-5-(1,5-dimethyl-6-oxo-1,6-dihydropyridin-3-yl)-3-ethyl-4,5-dihydropyrrolo[3,4-c]pyrazol-6(1H)-one]: 86.9 nM, 166 nM and 456 nM.
The matching figures for `Cc1nn(C2CC2)c2c1C(c1cccc(OC(F)(F)F)c1)N(c1cc(C)c(=O)n(C)c1)C2=O` (centres unmarked) [Example 91, 1-cyclopropyl-5-(1,5-dimethyl-6-oxo-1,6-dihydropyridin-3-yl)-3-methyl-4-(3-(trifluoromethoxy)phenyl)-4,5-dihydropyrrolo-[3,4-c]pyrazol-6(1H)-one]: 633 nM, 908 nM and 2680 nM.
For `CCn1nc2c(c1C)C(c1ccc(Cl)cc1F)N(c1cc(C)c3nnc(C)n3c1)C2=O` (centres unmarked) [Example 186, 4-(4-chloro-2-fluorophenyl)-5-(3,8-dimethyl-[1,2,4]triazolo[4,3-a]pyridin-6-yl)-2-ethyl-3-methyl-4,5-dihydropyrrolo-[3,4-c]pyrazol-6(2H)-one], the GI50 stood at 44.1 nM in experiment [1], 61.5 nM in experiment [2] and 208 nM in experiment [3].

Broadly, the GI50 is the concentration giving 50% growth inhibition. A low value points to more potent growth inhibition.
